Measured values reported in the supplement of paper PMC3493320.

Tested on: NCI-H295R
Assay: IC50 (antiproliferative, ATP content)
Details: 48 h
How it was run: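 Adrenocortical carcinoma cells in 1536-well plates (1500 per well, serum-free DMEM plus ITS, overnight culture) were exposed for 48 h at 37 °C, 5% CO2 to pin-transferred compounds at 8 final concentrations ranging 0.6 nM to 46 µM. ATP content was then read as CellTiter-Glo luminescence and normalised to vehicle and positive-control wells. The IC50 came from logistic curve fits, and any compound lacking a concentration response was recorded as above the top dose.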

SMILES	IC50 [µM]
CC(C)CCCC(C)N (stereo not given)	> 46
C[C@H](NCCc1ccc(O)cc1)[C@H](O)c1ccc(O)cc1.Cl	> 46
O=[C@]([C@H]2N(CCC)CCCC2)NC1=C(C)C=CC=C1C.Cl	> 46
CCCNC(C)(C)COC(=O)c1ccccc1.Cl	> 46
COc1ccccc1OC(=O)Oc1ccccc1OC	> 46
CC(C)Cc1ccc(CC(=O)O)cc1	> 46
O=P([O-])([O-])OC[C@@]1(O)O[C@H](COP(=O)([O-])O)[C@@H](O)[C@@H]1O.[Na+].[Na+].[Na+]	> 46
Cn1c(=O)c2[nH]c(Br)nc2n(C)c1=O	> 46
CC1=C(O[C@H](CCNC)[C@@]2=CC=CC=C2)C=CC=C1.Cl	> 46
[S]=[Sb](=[S])[S][Sb](=[S])=[S]	> 46
ClC(Cl)(Cl)Cl	> 46
Cc1cccc(Nc2ccccc2C(=O)O)c1C	> 46
O=C(O)CN(CCN(CC(=O)O)CC(=O)O)CCN(CC(=O)O)CC(=O)O	> 46
O=C1N2[C@@](SC(C)(C)[C@@H]2[C@@](O)=O)([H])[C@@]([H])1NC([C@H](NC([C@H](N)CC(NC)=O)=O)[C@@]3=CC=C(O)C=C3)=O	> 46
NC[C@@H](C1)[C@]1([C@@]2=CC=CC=C2)C(N(CC)CC)=O.Cl	> 46
O=C(O)c1cccc(-c2noc(-c3ccccc3F)n2)c1	> 46
CC1(C)S[C@@H]2[C@H](NC(=O)C(C(=O)[O-])c3ccsc3)C(=O)N2[C@H]1C(=O)[O-].[Na+].[Na+] (stereo not given in full)	> 46
C[Si](C)(C)O[Si](C)(C)C	> 46
Cl.NCCS	> 46
O=C(O)COC(=O)Cc1ccccc1Nc1c(Cl)cccc1Cl	> 46
O=C2N1[C@]([C@@]([H])2NC(C(C(OC)=CC=C3)=C3OC)=O)([H])SC(C)(C)[C@@H]1[C@@]([O-])=O.[Na+].O	> 46
COc1cc2c(cc1OC)CC(=O)N(CCCN(C)C[C@H]1Cc3cc(OC)c(OC)cc31)CC2.Cl	> 46
CCNC(=O)NCc1cccc(Cl)c1	> 46
CN1C2=CC(=O)C(=NNC(N)=O)C=C2CC1S(=O)(=O)[O-].[Na+] (stereo not given)	> 46
CNCCC(Oc1ccccc1OC)c1ccccc1 (stereo not given)	> 46

SMILES	IC50 [µM]
CC1(C)O[C@@H]2C[C@H]3[C@@H]4CCC5=CC(=O)C=C[C@]5(C)[C@H]4[C@@H](O)C[C@]3(C)[C@]2(C(=O)CO)O1	> 46
[Br-].O.C[N+]2(C1C[C@H](CC2CC1)OC(=O)C(CO)c3ccccc3)C(C)C (stereo not given)	> 46
Cc1ccc(-c2nc3ccc(C)cn3c2CC(=O)N(C)C)cc1	> 46
COc1ccc(OC)c(C(O)C(C)N)c1.Cl (stereo not given)	> 46
O[C@]([C@H]3CN(CCC3)CC/C=C(C2=C(C)C=CS2)/C1=C(C)C=CS1)=O.Cl	> 46
N[C@@H](Cc1ccc(O)c(O)c1)C(=O)O	> 46
CC(=O)Oc1cccc(C(=O)O)c1OC(C)=O	> 46
CCN[C@H]1CN(CCCOC)S(=O)(=O)c2sc(S(N)(=O)=O)cc21	> 46
CN(C)C(=O)Oc1cccc([N+](C)(C)C)c1.[Br-]	> 46
CC[C@H]1OC(=O)[C@H](C)[C@@H](O[C@H]2C[C@@](C)(OC)[C@@H](O)[C@H](C)O2)[C@H](C)[C@@H](O[C@@H]2O[C@H](C)C[C@H](N(C)C)[C@H]2O)[C@](C)(O)C[C@@H](C)CN(C)[C@H](C)[C@@H](O)[C@]1(C)O	> 46
CC1=NN(c2ccccc2)C(=O)C1	> 46
Cc1c(N(C)C)c(=O)n(-c2ccccc2)n1C	> 46
Cc1c(Cl)c(=O)oc2cc(OP(=O)(OCCCl)OCCCl)ccc12	> 46
CCCC(=O)O[C@]1(C(=O)CCl)[C@@H](C)C[C@H]2[C@@H]3CCC4=CC(=O)C=C[C@]4(C)[C@@]3(F)C(=O)C[C@@]21C	> 46
F[C@@]([C@](C=C4)(C)C3=CC4=O)2[C@@H](O)C[C@]([C@](C5)([H])[C@@]([H])2CC3)(C)[C@@]1([C@](CO)=O)[C@@H]5OC(C)(C)O1	> 46
CC(C)Cc1ccc([C@@H](C)C(=O)NS(C)(=O)=O)cc1	> 46
O=C(NCCO[N+](=O)[O-])c1cccnc1	> 46
CCCCCCC(=O)CCCCCC/C=C/C[C@@H](O)[C@H](O)[C@@](N)(CO)C(=O)O	> 46
CN(C)CCOc1ccccc1Cc1ccccc1.O=C(O)CC(O)(CC(=O)O)C(=O)O	> 46
Cl.O=C(O)c1cn(-c2ccc(F)cc2)c2cc(N3CCNCC3)c(F)cc2c1=O	> 46
[NH2][Pt]1([NH2])[O]CC(=O)[O]1	> 46
CCC(=O)O[C@H]1CC[C@H]2[C@@H]3CCC4=CC(=O)CC[C@]4(C)[C@H]3CC[C@]12C	> 46
Cc1nnc2n1-c1ccc(Cl)cc1C(c1ccccc1Cl)=NC2	> 46
[H][C@@]23N(CCC4=C3NC5=C4C=CC(OC)=C5)C[C@@]1([H])C[C@@H](OC(COC6=CC=C(OC)C=C6)=O)[C@H](OC)[C@@H]([C@@](OC)=O)[C@]([H])1C2	> 46
O=C1Nc2ccc(Cl)cc2C(c2ccccc2Cl)=NC1O (stereo not given)	> 46

SMILES	IC50 [µM]
[C@]43(\C(=C2\C(c1c(O)cccc1[C@](C2C[C@H]3[C@@H](/C(=C(\C4=O)C(NCN5CCCC5)=O)O)N(C)C)(O)C)=O)O)O (stereo not given in full)	> 46
N/C1=N/C(=O)N(/C=N1)[C@@H]2O[C@H](CO)[C@@H](O)[C@H]2O	> 46
C[C@]12CCC(=O)C=C1C=C[C@@H]1[C@@H]2CC[C@@]2(C)[C@H]1CC[C@@]21CCC(=O)O1	> 46
CCN(CC)S(=O)(=O)c1ccc(C(=O)O)cc1	> 46
CCOC(=O)[C@@](C)(N)Cc1ccc(O)c(O)c1.Cl	> 46
O=C(OOC(=O)c1ccccc1)c1ccccc1	> 46
CCN(CC)CC1CCCCN1CC(=O)N1c2ccccc2C(=O)Nc2cccnc21 (stereo not given)	> 46
O=C(O)[C@@H](S)[C@H](S)C(=O)O	> 46
O=C(O)c1ccccn1	> 46
CC(C)(C)NC[C@H](O)COc1nsnc1N1CCOCC1	> 46
O=C(O)c1cc(-c2ccc(F)cc2F)ccc1O	> 46
CC(N/C(=N\C#N)Nc1ccncc1)C(C)(C)C.O (stereo not given)	> 46
CCOC(=O)c1ccccc1C(=O)OCC	> 46
CN1C(=O)OC(C)(C)C1=O	> 46
CC(=O)Oc1ccc(C(c2ccc(OC(C)=O)cc2)c2ccccn2)cc1	> 46
CC1(C)S[C@@H]2[C@H](NC(=O)[C@@H](NC(=O)N3CCNC3=O)c3ccccc3)C(=O)N2[C@H]1C(=O)[O-].[Na+]	> 46
Cc1c(C)n(Cc2ccccc2)c2ccc(C(=O)OCCN(C)C)cc12	> 46
Cc1cc2nc3c(=O)[nH]c(=O)nc-3n(C[C@H](O)[C@H](O)[C@H](O)CO)c2cc1C	> 46
O=C1CN=C(c2ccccc2)c2cc(Cl)ccc2N1CC1CC1	> 46
CC(C)[C@H](CC)CC[C@@H](C)[C@H]3CC[C@H]2[C@@H]4C\C=C1\C[C@@H](O)CC[C@]1(C)[C@H]4CC[C@@]23C	> 46
O=C(O)CNC(=O)c1ccccc1	> 46
C[N+](C)(C)CCOC(N)=O.[Cl-]	> 46
N#Cc1nn(-c2c(Cl)cc(C(F)(F)F)cc2Cl)c(N)c1S(=O)C(F)(F)F (stereo not given)	> 46
CN(C)C(=O)COC(=O)Cc1ccc(OC(=O)c2ccc(NC(=N)N)cc2)cc1.CS(=O)(=O)O	> 46
O=C1[C@H]3[C@H](C3)[C@@]([C@]4([H])[C@@]([C@@]5([H])[C@]([C@@](CC5)(OC(C)=O)[C@@](C)=O)(C)CC4)([H])C=C2Cl)(C)C2=C1	> 46

SMILES	IC50 [µM]
O=C(O)Cc1ccc(CCNS(=O)(=O)c2ccc(Cl)cc2)cc1	> 46
Cc1cc(NC(=O)C2=C(O)c3ccccc3S(=O)(=O)N2C)no1	> 46
Cl.Nc1ccn([C@@H]2O[C@H](CO)[C@@H](O)C2(F)F)c(=O)n1	> 46
O=C(Oc1ccccc1C(=O)O)c1ccccc1O	> 46
Cc1cc(C)c(NC(=O)C[C@H](CC(=O)[O][Na])c2cccc3ccccc23)c(C(=O)N2CCC3(CCCC3)CC2)c1	> 46
COc1cc(NC(C)CCCN)c2ncccc2c1.O=P(O)(O)O.O=P(O)(O)O (stereo not given)	> 46
[O-][n+]1cc[n+]([O-])c2ccccc21	> 46
CC(=O)Nc1cc([As](=O)(O)O)ccc1O	> 46
C[C@H](CCC(=O)[O-])[C@H]1CC[C@H]2[C@@H]3CC[C@@H]4C[C@H](O)CC[C@]4(C)[C@H]3C[C@H](O)[C@]12C.[Na+]	> 46
CCCCc1nc(Cl)c(CO)n1Cc1ccc(-c2ccccc2-c2nnn[nH]2)cc1	> 46
CCCC(CCC)C(=O)O	> 46
OC[C@@H](O)[C@@H](O)[C@H](O)[C@H](O)CO	> 46
O=C(C1=C2CCCC1)N(COC([C@H]3C([C@@H]3/C=C(C)\C)(C)C)=O)C2=O	> 46
O=C(NC(=O)c1c(F)cccc1F)Nc1cc(Cl)c(OC(F)(F)C(F)C(F)(F)F)cc1Cl (stereo not given)	> 46
CCCCCCCCCC(CC)c1ccc(S(=O)(=O)[O-])cc1.[Na+] (stereo not given)	> 46
Cc1c(C)c2c(c(C)c1O)CC[C@@](C)(CCC[C@H](C)CCC[C@H](C)CCCC(C)C)O2	> 46
Nc1nc2c(ncn2COCCO)c(=O)[nH]1	> 46
CCNCC.O=S(=O)(O)c1cc(O)ccc1O	> 46
CC(CNC(=O)c1cccnc1)NC(=O)c1cccnc1 (stereo not given)	> 46
COc6cc7N1C(=O)CC2OC\C=C5\CN3CC[C@@]4(C1[C@H]2[C@H]5C[C@H]34)c7cc6OC (stereo not given in full)	> 46
C=O	> 46
O=C(O)Cc1cn(-c2ccccc2)nc1-c1ccc(Cl)cc1	> 46
F\C1=C\N(C(=O)NC1=O)[C@@H]2O[C@H](C)[C@@H](O)[C@H]2O	> 46
NCCc1cc[nH]n1	> 46
FC(F)OC(Cl)C(F)(F)F (stereo not given)	> 46
